# In ChEMBL document CHEMBL1139653, “Synthesis and biological evaluation of novel hexahydro-pyrido[3',2':4,5]pyrrolo[1,2-a]pyrazines as potent and selective 5-HT(2C) receptor agonists” (Bioorg Med Chem Lett, 2006):
# Legend:
# [1] = target: T1, 5-hydroxytryptamine receptor 2C (Homo sapiens) (UniProt P28335); test: Efficacy against human recombinant 5HT2C receptor expressed in CHO cells at 1 uM in relative to 10 uM 5HT by FLIPR; format: functional, cell-based
# T1 sequence (whole entry): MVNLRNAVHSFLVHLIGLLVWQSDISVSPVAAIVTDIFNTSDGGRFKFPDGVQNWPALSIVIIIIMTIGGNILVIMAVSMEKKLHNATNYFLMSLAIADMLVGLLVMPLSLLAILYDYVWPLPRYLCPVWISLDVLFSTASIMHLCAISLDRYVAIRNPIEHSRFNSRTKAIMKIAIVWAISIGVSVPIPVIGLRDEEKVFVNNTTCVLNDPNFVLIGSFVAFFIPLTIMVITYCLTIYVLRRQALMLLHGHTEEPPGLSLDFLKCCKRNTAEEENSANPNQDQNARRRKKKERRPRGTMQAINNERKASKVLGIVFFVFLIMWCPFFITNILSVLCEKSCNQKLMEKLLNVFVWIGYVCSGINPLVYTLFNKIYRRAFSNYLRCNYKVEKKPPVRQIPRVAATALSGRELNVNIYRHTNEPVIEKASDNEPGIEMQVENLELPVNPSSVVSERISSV
# [2] = target: T2, 5-hydroxytryptamine receptor 2A (Homo sapiens, UniProt P28223); test: Displacement of [125I]DOI from human recombinant 5HT2A receptor expressed in CHO cells; format: cell-based
# [3] = target: T3, 5-hydroxytryptamine receptor 2B (Homo sapiens, UniProt P41595); test: Displacement of [3H]5HT from human recombinant 5HT2B receptor expressed in CHO cells; format: cell-based
# [4] = target: T4, 5-hydroxytryptamine receptor 2C (Homo sapiens, UniProt P28335); test: Displacement of [3H]5HT from human recombinant 5HT2C receptor expressed in CHO cells; format: cell-based
# T4 sequence (P28335 whole entry): T1 sequence (whole entry)
# [5] = target: Voltage-gated inwardly rectifying potassium channel KCNH2 (Homo sapiens, UniProt Q12809); test: Inhibition of hERG potassium channel expressed in CHO cells by whole cell patch clamp method; format: toxicity, cell-based
# Phospholipidosis [6] = test: In vitro phospholipidosis in fibroblasts at 20uM; format: ADME
# [7] = target: T3, 5-hydroxytryptamine receptor 2B; test: Efficacy against human recombinant 5HT2B receptor induced intracellular calcium mobilization in CHO cells by FLIPR; format: functional, cell-based
# [8] = target: T4, 5-hydroxytryptamine receptor 2C; test: Efficacy against human recombinant 5HT2C receptor induced intracellular calcium mobilization in CHO cells by FLIPR
# [9] = target: 5-hydroxytryptamine receptor 1D (Homo sapiens, UniProt P28221); test: Binding affinity to 5HT1D receptor
# [10] = target: 5-hydroxytryptamine receptor 1A (Homo sapiens, UniProt P08908); test: Binding affinity to 5HT1A receptor
# [11] = target: 5-hydroxytryptamine receptor 1B (Homo sapiens, UniProt P28222); test: Binding affinity to 5HT1B receptor
# [12] = target: 5-hydroxytryptamine receptor 5A (Homo sapiens, UniProt P47898); test: Binding affinity to 5HT5A receptor
# [13] = target: 5-hydroxytryptamine receptor 6 (Homo sapiens, UniProt P50406); test: Binding affinity to 5HT6 receptor
# [14] = target: Adrenergic receptor alpha-1 (Homo sapiens, UniProt P35348+P25100+P35368); test: Binding affinity to alpha-1 adrenergic receptor; format: protein assay
# D(4) dopamine receptor = D(4) dopamine receptor (Homo sapiens, UniProt P21917); test: Binding affinity to D4 receptor
# [15] = target: Serotonin 3 (5-HT3) receptor; test: Binding affinity to 5HT3 receptor; format: protein-complex assay, Homo sapiens
# [16] = target: 5-hydroxytryptamine receptor 7 (Homo sapiens, UniProt P34969); test: Binding affinity to 5HT7 receptor
# [17] = target: Beta-1 adrenergic receptor (Homo sapiens, UniProt P08588); test: Binding affinity to beta-1 adrenergic receptor
# Mu-type opioid receptor = Mu-type opioid receptor (Homo sapiens, UniProt P35372); test: Binding affinity to mu type opioid receptor
# [18] = target: Sodium-dependent serotonin transporter (Homo sapiens, UniProt P31645); test: Binding affinity to 5HT transporter
# [19] = target: Sodium-dependent noradrenaline transporter (Homo sapiens, UniProt P23975); test: Binding affinity to NA transporter
# [20] = target: Sodium-dependent dopamine transporter (Homo sapiens, UniProt Q01959); test: Binding affinity to DA transporter
# [21] = Binding affinity to sodium channel
# Rattus norvegicus = test: Reduction of food intake in po dosed Hooded Lister rat; format: functional; conditions: read-out: MED
# [22] = target: T2, 5-hydroxytryptamine receptor 2A
# Description: Binding affinity to human recombinant 5HT2A receptor
# Phospholipidosis [23] = test: In vitro phospholipidosis in fibroblasts at 7.5uM; format: ADME, cell-based; conditions: fibroblast
# hERG (KCNH2) = hERG (KCNH2) (Homo sapiens, UniProt Q12809); test: Inhibition of hERG potassium channel expressed in CHO cells by whole cell patch clamp method at 10 uM; format: toxicity, cell-based; conditions: CHO cells expressing hERG
# T2 sequence (P28223 whole entry): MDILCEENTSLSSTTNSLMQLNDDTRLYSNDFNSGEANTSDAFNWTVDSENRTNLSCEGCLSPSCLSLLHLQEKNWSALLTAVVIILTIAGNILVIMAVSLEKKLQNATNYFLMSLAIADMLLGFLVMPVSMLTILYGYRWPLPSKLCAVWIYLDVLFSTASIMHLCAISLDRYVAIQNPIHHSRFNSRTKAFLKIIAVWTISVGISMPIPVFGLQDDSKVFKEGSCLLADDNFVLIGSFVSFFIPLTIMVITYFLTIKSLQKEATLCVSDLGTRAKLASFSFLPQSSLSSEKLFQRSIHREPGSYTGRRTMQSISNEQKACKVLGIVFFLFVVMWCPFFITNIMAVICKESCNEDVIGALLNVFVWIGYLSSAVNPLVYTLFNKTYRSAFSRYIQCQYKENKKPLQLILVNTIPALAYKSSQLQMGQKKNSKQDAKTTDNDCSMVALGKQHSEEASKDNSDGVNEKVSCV
# Voltage-gated inwardly rectifying potassium channel KCNH2, sequence (Q12809 whole entry): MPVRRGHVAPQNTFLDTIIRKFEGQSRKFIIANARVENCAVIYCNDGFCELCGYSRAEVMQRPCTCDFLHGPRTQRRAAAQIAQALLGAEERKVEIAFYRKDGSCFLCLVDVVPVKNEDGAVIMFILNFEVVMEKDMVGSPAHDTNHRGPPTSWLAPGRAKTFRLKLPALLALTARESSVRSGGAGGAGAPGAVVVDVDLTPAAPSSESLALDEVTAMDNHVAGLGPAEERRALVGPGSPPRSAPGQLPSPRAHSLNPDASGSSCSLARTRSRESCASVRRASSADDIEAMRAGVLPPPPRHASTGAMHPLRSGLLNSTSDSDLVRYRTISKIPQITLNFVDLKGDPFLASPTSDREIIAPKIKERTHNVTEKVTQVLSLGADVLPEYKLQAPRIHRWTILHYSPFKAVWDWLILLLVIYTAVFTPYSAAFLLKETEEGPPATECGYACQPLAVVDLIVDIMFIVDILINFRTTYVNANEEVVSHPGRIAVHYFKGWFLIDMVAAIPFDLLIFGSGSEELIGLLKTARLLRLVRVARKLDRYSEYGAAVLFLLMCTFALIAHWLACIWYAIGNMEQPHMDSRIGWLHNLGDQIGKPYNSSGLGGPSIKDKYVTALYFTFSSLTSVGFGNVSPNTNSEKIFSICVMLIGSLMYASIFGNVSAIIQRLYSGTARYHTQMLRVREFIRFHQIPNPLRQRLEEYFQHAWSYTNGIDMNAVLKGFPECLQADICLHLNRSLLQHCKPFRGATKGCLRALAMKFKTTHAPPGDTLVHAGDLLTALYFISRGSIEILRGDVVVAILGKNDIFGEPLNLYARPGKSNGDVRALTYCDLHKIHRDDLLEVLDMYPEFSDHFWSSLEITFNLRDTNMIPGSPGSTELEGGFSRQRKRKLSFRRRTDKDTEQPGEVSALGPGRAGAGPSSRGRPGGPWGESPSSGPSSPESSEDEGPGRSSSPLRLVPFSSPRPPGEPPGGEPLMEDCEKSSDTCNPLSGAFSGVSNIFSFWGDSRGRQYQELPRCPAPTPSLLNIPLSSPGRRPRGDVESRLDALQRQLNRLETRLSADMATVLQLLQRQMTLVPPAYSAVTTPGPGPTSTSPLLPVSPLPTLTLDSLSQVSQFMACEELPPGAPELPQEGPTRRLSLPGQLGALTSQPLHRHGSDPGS
# T3 sequence (P41595 whole entry): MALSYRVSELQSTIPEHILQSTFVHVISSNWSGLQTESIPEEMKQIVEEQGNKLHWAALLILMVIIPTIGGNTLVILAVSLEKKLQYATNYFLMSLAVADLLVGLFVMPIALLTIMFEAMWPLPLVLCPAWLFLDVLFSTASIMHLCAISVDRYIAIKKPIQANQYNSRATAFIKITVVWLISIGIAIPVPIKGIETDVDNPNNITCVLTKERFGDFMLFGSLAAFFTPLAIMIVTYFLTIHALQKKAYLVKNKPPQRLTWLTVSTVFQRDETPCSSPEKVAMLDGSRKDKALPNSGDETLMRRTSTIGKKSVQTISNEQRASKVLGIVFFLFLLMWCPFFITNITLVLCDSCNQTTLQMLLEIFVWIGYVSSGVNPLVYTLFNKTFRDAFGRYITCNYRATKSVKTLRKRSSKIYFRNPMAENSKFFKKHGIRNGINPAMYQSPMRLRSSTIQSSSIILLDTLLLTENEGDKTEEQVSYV
# 5-hydroxytryptamine receptor 6, sequence (P50406 whole entry): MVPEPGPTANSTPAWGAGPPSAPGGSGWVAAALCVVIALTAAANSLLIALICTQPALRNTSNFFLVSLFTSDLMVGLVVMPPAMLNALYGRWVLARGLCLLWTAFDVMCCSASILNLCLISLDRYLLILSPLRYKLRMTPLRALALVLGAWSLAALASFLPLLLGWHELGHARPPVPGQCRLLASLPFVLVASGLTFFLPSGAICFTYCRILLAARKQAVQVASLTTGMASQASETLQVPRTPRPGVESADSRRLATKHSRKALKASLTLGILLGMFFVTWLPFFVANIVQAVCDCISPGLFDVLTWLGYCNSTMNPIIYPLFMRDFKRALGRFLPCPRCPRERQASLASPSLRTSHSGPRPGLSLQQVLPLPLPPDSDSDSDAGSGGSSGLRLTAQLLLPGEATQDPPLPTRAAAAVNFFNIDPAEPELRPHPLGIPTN
# Sodium-dependent dopamine transporter, sequence (Q01959 whole entry): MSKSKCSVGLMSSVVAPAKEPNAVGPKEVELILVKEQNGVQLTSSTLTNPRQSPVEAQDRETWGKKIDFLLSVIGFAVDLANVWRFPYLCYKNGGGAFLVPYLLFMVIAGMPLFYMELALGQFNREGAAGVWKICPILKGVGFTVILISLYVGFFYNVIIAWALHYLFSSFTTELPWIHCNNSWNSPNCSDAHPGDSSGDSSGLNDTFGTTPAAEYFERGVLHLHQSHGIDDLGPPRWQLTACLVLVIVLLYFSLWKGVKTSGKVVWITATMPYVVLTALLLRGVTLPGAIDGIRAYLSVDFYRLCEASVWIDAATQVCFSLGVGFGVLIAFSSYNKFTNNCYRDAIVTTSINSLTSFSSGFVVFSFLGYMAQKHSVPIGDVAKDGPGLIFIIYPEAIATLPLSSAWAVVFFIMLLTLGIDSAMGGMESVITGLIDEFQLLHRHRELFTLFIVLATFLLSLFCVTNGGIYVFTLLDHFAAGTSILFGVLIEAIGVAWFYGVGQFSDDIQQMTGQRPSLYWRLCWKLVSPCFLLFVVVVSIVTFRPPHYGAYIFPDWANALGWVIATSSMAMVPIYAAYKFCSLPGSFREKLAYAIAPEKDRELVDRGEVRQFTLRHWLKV
# Beta-1 adrenergic receptor, sequence (P08588 whole entry): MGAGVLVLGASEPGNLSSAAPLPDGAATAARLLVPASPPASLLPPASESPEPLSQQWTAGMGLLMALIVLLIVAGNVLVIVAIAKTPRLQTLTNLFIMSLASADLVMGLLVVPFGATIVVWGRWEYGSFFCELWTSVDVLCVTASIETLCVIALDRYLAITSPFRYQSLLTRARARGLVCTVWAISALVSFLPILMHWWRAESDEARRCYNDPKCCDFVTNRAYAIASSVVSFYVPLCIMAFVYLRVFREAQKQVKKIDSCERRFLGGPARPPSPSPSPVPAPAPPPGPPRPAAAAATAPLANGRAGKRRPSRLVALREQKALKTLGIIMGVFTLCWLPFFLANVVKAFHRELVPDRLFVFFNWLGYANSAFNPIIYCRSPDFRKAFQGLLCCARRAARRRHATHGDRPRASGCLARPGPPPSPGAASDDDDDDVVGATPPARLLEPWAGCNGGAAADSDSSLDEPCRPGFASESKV
# 5-hydroxytryptamine receptor 5A, sequence (P47898 whole entry): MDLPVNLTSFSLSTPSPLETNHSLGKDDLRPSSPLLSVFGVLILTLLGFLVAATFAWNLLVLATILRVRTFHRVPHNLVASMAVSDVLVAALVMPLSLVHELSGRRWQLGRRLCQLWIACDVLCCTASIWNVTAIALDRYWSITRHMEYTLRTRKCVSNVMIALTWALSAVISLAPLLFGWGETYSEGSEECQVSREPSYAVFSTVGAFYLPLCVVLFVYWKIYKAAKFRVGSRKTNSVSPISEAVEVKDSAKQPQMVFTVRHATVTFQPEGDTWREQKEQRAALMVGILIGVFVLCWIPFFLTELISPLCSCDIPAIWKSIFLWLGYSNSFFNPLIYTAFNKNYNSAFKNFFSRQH
# Sodium-dependent noradrenaline transporter, sequence (P23975 whole entry): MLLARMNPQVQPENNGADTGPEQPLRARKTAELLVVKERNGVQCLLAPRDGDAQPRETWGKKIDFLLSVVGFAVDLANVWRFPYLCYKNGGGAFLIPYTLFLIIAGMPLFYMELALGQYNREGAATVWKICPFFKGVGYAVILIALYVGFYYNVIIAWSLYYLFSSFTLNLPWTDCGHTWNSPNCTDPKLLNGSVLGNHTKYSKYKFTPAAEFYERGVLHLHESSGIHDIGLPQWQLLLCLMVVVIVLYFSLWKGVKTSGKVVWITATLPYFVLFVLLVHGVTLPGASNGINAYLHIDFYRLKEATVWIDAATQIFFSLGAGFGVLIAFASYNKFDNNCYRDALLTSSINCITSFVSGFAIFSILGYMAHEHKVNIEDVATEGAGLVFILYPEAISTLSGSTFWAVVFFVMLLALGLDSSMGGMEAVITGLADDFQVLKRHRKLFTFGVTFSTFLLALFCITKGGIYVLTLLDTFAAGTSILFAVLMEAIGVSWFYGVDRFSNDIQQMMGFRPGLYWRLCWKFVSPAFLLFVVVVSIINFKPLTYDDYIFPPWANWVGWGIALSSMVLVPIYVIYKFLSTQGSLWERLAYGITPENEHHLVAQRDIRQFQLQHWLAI
# 5-hydroxytryptamine receptor 1B, sequence (P28222 whole entry): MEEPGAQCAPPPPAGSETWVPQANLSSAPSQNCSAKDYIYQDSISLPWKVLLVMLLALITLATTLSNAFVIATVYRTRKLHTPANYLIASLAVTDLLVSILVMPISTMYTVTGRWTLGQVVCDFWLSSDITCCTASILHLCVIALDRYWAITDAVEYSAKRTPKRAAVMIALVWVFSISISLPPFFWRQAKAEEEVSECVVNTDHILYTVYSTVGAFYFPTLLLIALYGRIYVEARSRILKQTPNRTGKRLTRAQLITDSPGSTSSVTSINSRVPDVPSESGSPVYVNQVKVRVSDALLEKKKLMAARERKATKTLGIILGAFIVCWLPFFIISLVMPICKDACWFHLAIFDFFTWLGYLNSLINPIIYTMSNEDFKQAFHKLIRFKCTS
structure (smiles),measurement,setting,value
C[C@@H]1CNC[C@H]2Cc3ccc(C(F)(F)F)nc3N21,Efficacy,[1],96%
same,Ki,[2],43 nM
same,Ki,[3],68 nM
same,Ki,[4],14 nM
CC(=O)Nc1ccc2c(n1)N1[C@@H](CNC[C@H]1C)C2,Efficacy,[1],0%
C[C@@H]1CNC[C@H]2Cc3ccc(Cl)nc3N21,Efficacy,[1],98%
same,Ki,[2],42 nM
same,Ki,[3],48 nM
same,Ki,[4],1.6 nM
same,IC50,[5],40000 nM
C[C@@H]1CNC[C@@H]2Cc3ccc(Br)nc3N21,Efficacy,[1],87%
same,Ki,[2],58 nM
same,Ki,[3],166 nM
same,Ki,[4],21 nM
Cc1ccc2c(n1)N1[C@@H](CNC[C@H]1C)C2,Efficacy,[1],101%
same,Ki,[2],136 nM
same,Ki,[3],77 nM
same,Ki,[4],2.7 nM
same,IC50,[5],21000 nM
same,Phospholipidosis,Phospholipidosis [6],Not Active
C[C@@H]1CNC[C@H]2Cc3ccc(COCC4CC4)nc3N21,Efficacy,[1],87%
same,Ki,[2],74 nM
same,Ki,[3],174 nM
same,Ki,[4],3.6 nM
same,EC50,[7],23 nM
same,Emax,[7],31%
same,EC50,[8],15 nM
same,Ki,[9],> 360 nM
same,Ki,[10],> 720 nM
same,Ki,[11],> 720 nM
same,Ki,[12],> 720 nM
same,Ki,[13],> 720 nM
same,Ki,[14],> 1000 nM
same,Ki,D(4) dopamine receptor,> 720 nM
same,Ki,[15],> 1000 nM
same,Ki,[16],> 1000 nM
same,Ki,[17],> 1000 nM
same,Ki,Mu-type opioid receptor,> 1000 nM
same,Ki,[18],> 1000 nM
same,Ki,[19],> 1000 nM
same,Ki,[20],> 1000 nM
same,Ki,[21],> 1000 nM
same,minimal effective dose,Rattus norvegicus,10 mg/kg
same,IC50,[5],> 30000 nM
same,Phospholipidosis,Phospholipidosis [6],Not Active
same,pKb,[22],6.7
C[C@@H]1CNC[C@H]2Cc3ccc(CO)nc3N21,Efficacy,[1],88%
same,Ki,[2],942 nM
same,Ki,[3],1140 nM
same,Ki,[4],54 nM
C[C@@H]1CNC[C@H]2Cc3ccc(C#N)nc3N21,Efficacy,[1],85%
same,Ki,[2],2550 nM
same,Ki,[3],1820 nM
same,Ki,[4],60 nM
Cc1c(Cl)ccc2c1N1[C@H](CNC[C@H]1C)C2,Ki,[2],19 nM
same,Ki,[3],40 nM
same,Phospholipidosis,Phospholipidosis [23],7.5 µM
COc1ccc2c(n1)N1[C@@H](CNC[C@H]1C)C2,Efficacy,[1],77%
same,Ki,[2],511 nM
same,Ki,[3],440 nM
same,Ki,[4],104 nM
CCO[C@H](C)c1ccc2c(n1)N1[C@@H](CNC[C@H]1C)C2,Efficacy,[1],86%
same,Ki,[2],2380 nM
same,Ki,[3],1310 nM
same,Ki,[4],93 nM
C[C@@H]1CNC[C@H]2Cc3ccc(Br)nc3N21,Efficacy,[1],97%
same,Ki,[2],53 nM
same,Ki,[3],81 nM
same,Ki,[4],0.8 nM
C[C@H](O)c1ccc2c(n1)N1[C@@H](CNC[C@H]1C)C2,Efficacy,[1],101%
same,Ki,[2],392 nM
same,Ki,[3],835 nM
same,Ki,[4],39 nM
COCc1ccc2c(n1)N1[C@@H](CNC[C@H]1C)C2,Efficacy,[1],97%
same,Ki,[2],565 nM
same,Ki,[3],379 nM
same,Ki,[4],16 nM
CCO[C@@H](C)c1ccc2c(n1)N1[C@@H](CNC[C@H]1C)C2,Efficacy,[1],83%
same,Ki,[2],65 nM
same,Ki,[3],295 nM
same,Ki,[4],2.3 nM
same,inhibition at 10 µM,hERG (KCNH2),20%
C[C@@H]1CNC[C@@H]2Cc3ccc(Cl)nc3N21,Efficacy,[1],81%
same,Ki,[2],54 nM
same,Ki,[3],217 nM
same,Ki,[4],52 nM
Clc1ccc2c(n1)N1CCNCC1C2 (centres undefined),Ki,[2],217 nM
same,Ki,[3],221 nM
same,Ki,[4],131 nM
